# Test results reported in patent publication US20120010186A1, “HETEROCYCLIC COMPOUNDS AS INHIBITORS OF STEAROYL-COENZYME A DELTA-9 DESATURASE” (MERCK FROSST CANADA LTD., priority 2009, published 2012).
# Target: T1, human SCD1 (hSCD-1) (Homo sapiens, UniProt O00767)
# T1 construct: made in house; host or cells: baculovirus/Sf9
# T1 sequence (O00767 1-359): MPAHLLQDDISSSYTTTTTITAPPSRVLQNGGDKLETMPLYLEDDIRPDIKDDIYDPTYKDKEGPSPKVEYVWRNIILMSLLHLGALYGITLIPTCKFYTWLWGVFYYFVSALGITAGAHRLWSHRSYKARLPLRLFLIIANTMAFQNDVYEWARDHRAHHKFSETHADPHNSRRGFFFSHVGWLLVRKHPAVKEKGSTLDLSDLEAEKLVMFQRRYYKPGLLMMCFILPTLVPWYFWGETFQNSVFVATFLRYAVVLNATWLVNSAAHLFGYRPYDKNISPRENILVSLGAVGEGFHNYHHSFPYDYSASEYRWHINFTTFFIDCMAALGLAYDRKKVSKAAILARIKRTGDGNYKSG
# Assay: SCD enzyme activity assay, reconstituted human SCD1 (hSCD-1)
# Format: biochemical
# Description: The potency of compounds of formula I against the stearoyl-CoA desaturase was determined by measuring the conversion of radiolabeled stearoyl-CoA to oleoyl-CoA using rat liver microsome or human SCD1 (hSCD-1) following previously published procedures with some modifications (Joshi, et al., J. Lipid Res., 18: 32-36 (1977); Talamo, et al., Anal. Biochem, 29: 300-304 (1969)). Liver microsome was prepared from male Wistar or Sprague Dawley rats on a high carbohydrate diet for 3 days (LabDiet #5803, Purina). The livers were homogenized (1:10 w/v) in a buffer containing 250 mM sucrose, 1 mM EDTA, 5 mM DTT and 50 mM Tris-HCl (pH 7.5). After a 100,000×g centrifugation for 60 min, the liver microsome pellet was suspended in a buffer containing 100 mM sodium phosphate, 20% glycerol, 2 mM DTT, and stored at −78° C. Human SCD1 desaturase system was reconstituted using human SCD1 from a baculovirus/Sf9 expression system, cytochrome B5 and cytochrome B5 reductase. Typically, test compound in 2 μL DMSO was incubated for 15 min at room temperature with 180 μL of the SCD enzyme in a buffer containing 100 mM Tris-HCl (pH 7.5), ATP (5 mM), Coenzyme-A (0.1 mM), Triton X-100 (0.5 mM) and NADH (2 mM). The reaction was initiated by the addition of 20 μL of [^3H]-stearoyl-CoA (final concentration=2 μM, radioactivity concentration=1 μCi/mL). After 10 min, the reaction mixture (80 μL) was mixed with a calcium chloride/charcoal aqueous suspension (100 μL charcoal (10% w/v) plus 25 μL CaCl2 (2N). After centrifugation to precipitate the radioactive fatty acid species, tritiated water released from 9,10-[^3H]-stearoyl-CoA by the SCD enzyme was quantified on a scintillation counter.
row,Compound,IC50 [nM]
1,O=C(O)Cn1nnc(-c2cnc(N3CCC4(CC3)CN(c3cc(F)ccc3Cl)C4)s2)n1,39
2,O=C(O)Cn1nnc(-c2cc(N3CC4CN(c5cc(F)ccc5Cl)CC4C3)no2)n1 (centres unmarked),27
3,O=C(O)Cn1nnc(-c2cnc(N3CC4(CCN(c5cc(F)ccc5Cl)CC4)C3)s2)n1,45
4,O=C(O)Cn1nnc(-c2cnc(N3CCC4(CCN(c5ccccc5Cl)C4)C3)s2)n1 (centres unmarked),161
5,O=C(O)Cn1nnc(-c2cnc(N3CC4CN(c5cc(C(F)(F)F)ccc5Br)CC4C3)s2)n1 (centres unmarked),14
6,O=C(O)Cn1nnc(-c2cnc(N3CC4CN(c5cc(F)ccc5Br)CC4C3)nc2)n1 (centres unmarked),77

# The next molecules have a lower IC50 than those just listed; values first:
row,IC50 [nM],Compound
1,13,O=C(O)Cn1nnc(-c2cnc(N3CC4CN(c5cc(Cl)cc(F)c5Cl)CC4C3)s2)n1 (centres unmarked)
2,10,O=C(O)Cn1nnc(-c2cnc(N3CC4CN(c5cc(OC(F)(F)F)ccc5Cl)CC4C3)s2)n1 (centres unmarked)
3,11,O=C(O)Cn1nnc(-c2cnc(N3CC4(C3)CN(c3cc(F)ccc3Cl)C4)s2)n1
4,12,O=C(O)Cn1nnc(-c2cnc(N3CC4CN(c5cc(F)ccc5Cl)CC4C3)s2)n1 (centres unmarked)
5,13,O=C(O)Cn1nnc(-c2cnc(N3CC4CN(c5cc(Cl)ccc5Cl)CC4C3)s2)n1 (centres unmarked)
